Consider 7 molecules from article PMC4503722, “Novel Phenotypic Outcomes Identified for a Public Collection of Approved Drugs from a Publicly Accessible Panel of Assays” (PLoS ONE, 2015).

Like-named read-outs stand apart in the source and are kept apart here. Where only a bound is given, the exact number is not on record here.

One test concerns HeLa cells. The test is described as follows: cells. It is filed as cell-based.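 As to Hela CellCycMod PI 4N summarized IC50: value tracks stimulation of 4N DNA content.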
A further test deals with DLD-1. Kind of test: cells. It is filed as cell-based. The following applies: for IC50: read-out: Basal_Viability ATP DLD-1 summarized IC50.
The test system of another test is SW480. The test is described as follows: cells. The test is classed as cell-based. The conditions noted are these: for IC50: read-out: Basal_Viability ATP SW480 summarized IC50.
The test system of the next test is HCT116. The test is described as follows: cells. The following applies: for IC50: read-out: Basal_Viability ATP HCT116 summarized IC50. The test is classed as cell-based.
In another test the test system is Colo320. The test is described as follows: cells. It is filed as cell-based. The conditions noted are these: for IC50: read-out: Basal_Viability ATP Colo 320 summarized IC50.
The test system of another test is HT-29. The test is described as follows: cells. The conditions noted are these: for IC50: read-out: Basal_Viability ATP HT-29 summarized IC50. It is filed as cell-based.
The test system of a further test is RKO. The test is described as follows: cells. The test is classed as cell-based. The following applies: for IC50: read-out: Basal_Viability ATP RKO summarized IC50.
In the next test the test system is SNU-C1. The test is described as follows: cells. The test is classed as cell-based. The following applies: for IC50: read-out: Basal_Viability ATP SNU-C1 summarized IC50.
Test [1] has as its system endothelial tube formation in co-cultures of ECFCs and ADSCs treated with VEGF. Kind of test: cells. The conditions noted are these: for IC50: read-out: VEGF_ADSC\ECFC Angio CD31 TubeArea summarized IC50. It is filed as cell-based, human.
The test system of test [2] is ECFC/ADSC co-culture cell nuclei number. The following applies: for IC50: read-out: VEGF_ADSC\ECFC Angio Hoechst NucArea summarized IC50.

The IC50 is the point on the concentration scale where inhibition reaches its midpoint.

Turning to `Fc1ccc(C(OCCN2CCN(CCCc3ccccc3)CC2)c2ccc(F)cc2)cc1` [NCGC00015300-10], the “IC50/EC50, Hela CellCycMod PI 2N (assay number 14)” value with HeLa cells (2N) was greater than 10000 nM. Also, the “IC50/EC50, Hela CellCycMod PI 4N (assay number 16)” value in the test with HeLa cells (4N) was greater than 10000 nM. In addition, in the test with HeLa cells (Cell Number), the “IC50/EC50, Hela CellCycMod PI Cell Number (assay number 18)” value is 3200 nM. The “IC50/EC50, Hela CellCycMod PI MI (assay number 17)” value in the test on HeLa cells (MI) is greater than 10000 nM. Moreover, the “IC50/EC50, Hela CellCycMod PI S Phase (assay number 15)” value in the test with HeLa cells (S Phase) is greater than 10000 nM. Besides, in the test with DLD-1 (basal), the “IC50/EC50, Basal_Viability ATP DLD-1 (assay number 23)” value worked out at 903.2 nM. For the same molecule, the “IC50/EC50, Basal_Viability ATP SW480 (assay number 24)” value in the test on SW480 (basal) is 2068 nM. Further, the “IC50/EC50, Basal_Viability ATP HCT116 (assay number 25)” value with HCT116 (basal) came to 4871.8 nM. Also, the “IC50/EC50, Basal_Viability ATP Colo 320 (assay number 27)” value in the test on Colo320 (basal) was greater than 20000 nM. For the same molecule, the “IC50/EC50, Basal_Viability ATP HT-29 (assay number 28)” value in the test with HT-29 (basal) was 1485.1 nM. The “IC50/EC50, Basal_Viability ATP RKO (assay number 29)” value with RKO (basal) stood at 113 nM. For the same molecule, the “IC50/EC50, Basal_Viability ATP SNU-C1 (assay number 30)” value in the test on SNU-C1 (basal) was 1817 nM.
Consider `O=c1[nH]cc(F)c(=O)[nH]1` [NCGC00015442-15], for which the IC50 is greater than 10000 nM in test [1]; greater than 10000 nM in the test on HeLa cells (assay number 14, 2N, read-out: Hela CellCycMod PI 2N summarized IC50); greater than 10000 nM in the test on HeLa cells (assay number 15, S phase, read-out: Hela CellCycMod PI S Phase summarized IC50); greater than 10000 nM in the test with HeLa cells (assay number 16, 4N, read-out: Hela CellCycMod PI 4N summarized IC50); greater than 10000 nM in the test with HeLa cells (assay number 17, MI, read-out: Hela CellCycMod PI MI summarized IC50); greater than 10000 nM in the test on HeLa cells (assay number 18, cell number, read-out: Hela CellCycMod PI Cell Number summarized IC50). Also, the IC50 is greater than 20000 nM in the test on DLD-1 (assay number 23, basal); greater than 20000 nM in the test with SW480 (assay number 24, basal); greater than 20000 nM with Colo320 (assay number 27, basal); greater than 20000 nM in the test with HT-29 (assay number 28, basal); greater than 20000 nM in the test on RKO (assay number 29, basal); greater than 20000 nM in the test with SNU-C1 (assay number 30, basal). In test [2], the IC50 is greater than 10000 nM.
In the case of `CS(=O)(=O)O.Cc1ccc2c(c1)c1c3n2CCNC3CCC1` (stereo not shown) [NCGC00024749-04], the “Hela CellCycMod PI 2N IC50/EC50” value in the test with HeLa cells (assay number 14, 2N) is greater than 10000 nM. Also, in the test on HeLa cells (assay number 15, S phase), the “Hela CellCycMod PI S Phase IC50/EC50” value is greater than 10000 nM. In addition, in the test on HeLa cells (assay number 16, 4N), the “Hela CellCycMod PI 4N IC50/EC50” value is greater than 10000 nM. Further, the “Hela CellCycMod PI MI IC50/EC50” value with HeLa cells (assay number 17, MI) is greater than 10000 nM. In addition, the “Hela CellCycMod PI Cell Number IC50/EC50” value with HeLa cells (assay number 18, cell number) is greater than 10000 nM. In the test on DLD-1 (assay number 23), the “Basal_Viability ATP DLD-1 IC50/EC50” value is greater than 20000 nM. Further, the “Basal_Viability ATP SW480 IC50/EC50” value with SW480 (assay number 24) was greater than 20000 nM. Also, the “Basal_Viability ATP HCT116 IC50/EC50” value in the test on HCT116 (assay number 25, basal) was greater than 20000 nM. The “Basal_Viability ATP Colo 320 IC50/EC50” value with Colo320 (assay number 27) was greater than 20000 nM. In the test with HT-29 (assay number 28), the “Basal_Viability ATP HT-29 IC50/EC50” value was greater than 20000 nM. Moreover, in the test with RKO (assay number 29), the “Basal_Viability ATP RKO IC50/EC50” value is greater than 20000 nM. In addition, the “Basal_Viability ATP SNU-C1 IC50/EC50” value with SNU-C1 (assay number 30) was found to be 2476.3 nM.
For `Nc1ncn([C@@H]2O[C@H](CO)[C@@H](O)[C@H]2O)c(=O)n1` [NCGC00090851-10], the “VEGF_ADSC\ECFC Angio CD31 TubeArea IC50/EC50” value in test [1] is greater than 10000 nM. In the test on DLD-1 (assay number 23), the “Basal_Viability ATP DLD-1 IC50/EC50” value was 2550.2 nM. In addition, the “Basal_Viability ATP SW480 IC50/EC50” value in the test with SW480 (assay number 24) is greater than 6666.7 nM. Besides, the “Basal_Viability ATP HCT116 IC50/EC50” value in the test on HCT116 (assay number 25, basal) worked out at 3036.4 nM. For the same molecule, in the test on Colo320 (assay number 27), the “Basal_Viability ATP Colo 320 IC50/EC50” value is 12340.6 nM. Further, in the test on HT-29 (assay number 28), the “Basal_Viability ATP HT-29 IC50/EC50” value was determined as 12532.9 nM. Further, in the test with RKO (assay number 29), the “Basal_Viability ATP RKO IC50/EC50” value was found to be 7400.4 nM. For the same molecule, the “Basal_Viability ATP SNU-C1 IC50/EC50” value in the test on SNU-C1 (assay number 30) stood at 1802.7 nM. Also, the “VEGF_ADSC\ECFC Angio Hoechst NucArea IC50/EC50” value in [2] is greater than 10000 nM.
Turning to `CC(=O)[O][Hg][c]1ccccc1` [NCGC00091050-09], the IC50 in test [1] was determined as 530 nM; with DLD-1 (assay number 23, basal) it was 736 nM; in the test on SW480 (assay number 24, basal) it was 543 nM; in the test with HCT116 (assay number 25, basal), 2800 nM; in the test on Colo320 (assay number 27, basal), 1300 nM; in the test with HT-29 (assay number 28, basal) it was 799 nM. In addition, the IC50 in the test on RKO (assay number 29, basal) was 1200 nM; in the test with SNU-C1 (assay number 30, basal), 192 nM; in test [2] it was 883 nM.
For `CN(C)c1ccc(C(=C2C=CC(=[N+](C)C)C=C2)c2ccc(N(C)C)cc2)cc1` [NCGC00091112-09], the IC50 in test [1] is 186 nM; in the test on DLD-1 (assay number 23, basal) it was 471 nM; in the test with SW480 (assay number 24, basal), 528 nM; in the test with HCT116 (assay number 25, basal), 514 nM; in the test with Colo320 (assay number 27, basal), 2050 nM; in the test on HT-29 (assay number 28, basal) it was 466 nM. Moreover, the IC50 was determined as 994 nM in the test on RKO (assay number 29, basal); 394 nM in the test with SNU-C1 (assay number 30, basal); 1830 nM in test [2].
With `Oc1ccc(Cl)cc1Cc1cc(Cl)ccc1O` [NCGC00091325-09], the IC50 is 2320 nM in test [1]; 862 nM in the test with DLD-1; 2500 nM with SW480; 1550 nM in the test on HCT116; 1210 nM in the test on Colo320; 4690 nM with HT-29. Besides, the IC50 with RKO was determined as 1930 nM; with SNU-C1 it was 546 nM; in [2] it was 6000 nM.
